Source: ChEMBL document CHEMBL5329208 (RSC Med Chem, 2023)

Experiments:
[1] = Selectivity index, ratio of CC50 for cytotoxicity against human HePAD38 cells assessed as reduction in cell viability to EC50 for antiviral activity against HBV infected human HePAD38 cells assessed as reduction of HBV DNA level; type: toxicity, cell-based; settings: read-out: Ratio CC50/EC50
Hepatitis B virus = experiment: Antiviral activity against HBV infected human HePAD38 cells assessed as reduction of HBV DNA level with compound replacement for every 3 days and measured on day 6 by qPCR analysis; type: functional, organism-based
[2] = Cytotoxicity against human HePAD38 cells assessed as reduction in cell viability by CCK-8 assay; type: toxicity, cell-based
CYP2C9 = CYP2C9 (Homo sapiens, UniProt P11712); experiment: Inhibition of CYP2C9 (unknown origin) at 10 uM using diclofenac as substrate incubated for 10 mins in presence of NADPH by LC-MS/MS analysis relative to control; type: ADME; settings: probe diclofenac
Chain of CYP2C9 (P11712 whole entry): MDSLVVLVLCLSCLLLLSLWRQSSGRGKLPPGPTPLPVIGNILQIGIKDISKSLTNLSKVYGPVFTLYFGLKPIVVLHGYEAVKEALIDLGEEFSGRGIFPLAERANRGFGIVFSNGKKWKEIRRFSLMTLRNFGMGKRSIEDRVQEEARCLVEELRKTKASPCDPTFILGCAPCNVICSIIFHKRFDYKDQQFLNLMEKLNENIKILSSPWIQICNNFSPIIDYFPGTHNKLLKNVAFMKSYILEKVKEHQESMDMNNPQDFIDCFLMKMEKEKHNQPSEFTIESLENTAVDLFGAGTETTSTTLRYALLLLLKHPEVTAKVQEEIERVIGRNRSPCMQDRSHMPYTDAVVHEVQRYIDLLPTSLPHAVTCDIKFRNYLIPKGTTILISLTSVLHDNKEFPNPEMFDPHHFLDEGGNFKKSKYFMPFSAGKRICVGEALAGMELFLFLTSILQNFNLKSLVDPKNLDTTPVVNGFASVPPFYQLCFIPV

hERG (KCNH2) = hERG (KCNH2) (Homo sapiens, UniProt Q12809); experiment: Inhibition of hERG expressed in HEK293 cells at 1 uM at holding potential of -80 mV by whole cell patch clamp assay relative to control; type: toxicity, cell-based; settings: HEK293 cells expressing hERG
Chain of hERG (KCNH2) (Q12809 whole entry): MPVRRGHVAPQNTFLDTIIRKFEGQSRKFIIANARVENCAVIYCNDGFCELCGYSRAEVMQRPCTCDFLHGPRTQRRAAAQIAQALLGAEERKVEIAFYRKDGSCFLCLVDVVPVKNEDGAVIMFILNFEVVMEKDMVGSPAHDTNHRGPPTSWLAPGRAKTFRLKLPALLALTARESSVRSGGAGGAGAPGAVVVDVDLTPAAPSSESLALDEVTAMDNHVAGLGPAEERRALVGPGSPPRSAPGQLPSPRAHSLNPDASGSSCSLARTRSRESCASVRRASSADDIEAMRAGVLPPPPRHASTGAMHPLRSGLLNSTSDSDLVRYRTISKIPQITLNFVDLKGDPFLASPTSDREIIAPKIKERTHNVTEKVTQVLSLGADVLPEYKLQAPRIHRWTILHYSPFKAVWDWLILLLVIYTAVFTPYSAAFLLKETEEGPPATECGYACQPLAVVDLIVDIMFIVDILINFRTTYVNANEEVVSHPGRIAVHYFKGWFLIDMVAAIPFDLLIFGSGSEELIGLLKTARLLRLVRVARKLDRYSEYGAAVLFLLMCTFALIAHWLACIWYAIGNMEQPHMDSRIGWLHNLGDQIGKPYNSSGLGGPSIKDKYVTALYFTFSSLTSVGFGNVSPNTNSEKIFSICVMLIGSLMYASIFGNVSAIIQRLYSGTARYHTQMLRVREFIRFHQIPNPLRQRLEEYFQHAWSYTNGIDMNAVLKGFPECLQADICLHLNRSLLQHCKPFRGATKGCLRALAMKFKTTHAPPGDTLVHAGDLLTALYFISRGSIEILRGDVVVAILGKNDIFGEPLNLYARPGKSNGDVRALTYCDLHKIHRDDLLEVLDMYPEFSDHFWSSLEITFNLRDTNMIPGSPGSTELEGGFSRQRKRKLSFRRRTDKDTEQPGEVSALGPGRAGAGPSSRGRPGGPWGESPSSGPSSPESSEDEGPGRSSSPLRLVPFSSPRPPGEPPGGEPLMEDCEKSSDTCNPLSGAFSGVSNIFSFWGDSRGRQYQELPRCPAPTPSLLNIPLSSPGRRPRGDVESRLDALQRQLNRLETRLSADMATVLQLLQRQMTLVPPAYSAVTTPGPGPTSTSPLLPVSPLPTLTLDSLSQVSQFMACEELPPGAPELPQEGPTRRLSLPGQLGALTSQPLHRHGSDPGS

CYP2C19 = CYP2C19 (Homo sapiens, UniProt P33261); experiment: Inhibition of CYP2C19 (unknown origin) at 10 uM using s-mephenytoin as substrate incubated for 10 mins in presence of NADPH by LC-MS/MS analysis relative to control; type: ADME; settings: probe S-mephenytoin
Chain of CYP2C19 (P33261 whole entry): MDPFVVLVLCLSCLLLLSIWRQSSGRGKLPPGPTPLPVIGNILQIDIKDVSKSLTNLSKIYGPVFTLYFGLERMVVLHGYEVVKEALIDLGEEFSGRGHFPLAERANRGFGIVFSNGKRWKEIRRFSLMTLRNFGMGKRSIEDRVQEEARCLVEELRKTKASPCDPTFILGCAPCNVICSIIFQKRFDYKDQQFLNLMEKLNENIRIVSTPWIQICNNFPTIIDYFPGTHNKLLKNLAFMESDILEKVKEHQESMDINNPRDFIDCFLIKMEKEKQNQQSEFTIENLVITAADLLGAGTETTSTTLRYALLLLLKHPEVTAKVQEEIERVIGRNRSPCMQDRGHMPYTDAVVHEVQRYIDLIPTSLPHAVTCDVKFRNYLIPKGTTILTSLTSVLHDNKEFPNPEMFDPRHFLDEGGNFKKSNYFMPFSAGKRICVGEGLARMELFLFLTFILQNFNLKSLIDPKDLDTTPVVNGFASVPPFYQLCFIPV

CYP1A2 = molecular target: T1, CYP1A2 (Homo sapiens, UniProt P05177); experiment: Inhibition of CYP1A2 (unknown origin) at 10 uM using phenacetin as substrate incubated for 10 mins in presence of NADPH by LC-MS/MS analysis relative to control; type: ADME; settings: probe phenacetin
T1 sequence (P05177 whole entry): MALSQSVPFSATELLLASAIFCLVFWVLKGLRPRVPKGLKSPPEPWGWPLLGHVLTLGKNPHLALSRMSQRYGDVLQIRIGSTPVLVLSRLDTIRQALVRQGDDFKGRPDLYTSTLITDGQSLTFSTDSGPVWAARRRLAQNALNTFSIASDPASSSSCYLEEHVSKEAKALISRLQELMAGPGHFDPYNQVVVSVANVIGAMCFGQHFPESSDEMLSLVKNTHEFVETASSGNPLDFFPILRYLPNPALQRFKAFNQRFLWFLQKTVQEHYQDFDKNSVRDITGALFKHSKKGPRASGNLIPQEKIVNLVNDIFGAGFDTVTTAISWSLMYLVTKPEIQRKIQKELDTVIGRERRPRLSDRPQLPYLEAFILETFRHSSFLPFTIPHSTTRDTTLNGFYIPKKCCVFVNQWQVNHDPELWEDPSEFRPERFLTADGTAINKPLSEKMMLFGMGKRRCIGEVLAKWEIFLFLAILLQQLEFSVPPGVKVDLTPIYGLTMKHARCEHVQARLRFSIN

[3] = Metabolic stability in human liver microsome assessed as intrinsic clearance preincubated for 10 mins followed by NADPH addition and measured after 60 mins by LC-MS/MS analysis; type: ADME; settings: liver microsomes, time 70 min, read-out: CLH
[4] = Metabolic stability in human liver assessed as intrinsic clearance preincubated for 10 mins followed by NADPH addition and measured after 60 mins by LC-MS/MS analysis; type: ADME, tissue-based; settings: time 70 min, read-out: CLH
[5] = Metabolic stability in human liver microsome assessed as half life preincubated for 10 mins followed by NADPH addition and measured after 60 mins by LC-MS/MS analysis; type: ADME; settings: liver microsomes, time 70 min

Row | Structure (SMILES) | selectivity ratio [1] | EC50 (Hepatitis B virus) [nM] | CC50 [2] [µM] | also measured
1 | CCOC(=O)C1=C(CN2CCN(C(C(=O)O)c3ccccc3O)CC2)NC(c2nccs2)=NC1c1ccc(F)cc1Br (stereo not drawn) | 3.4 | 6480 | 22.4 | –
2 | Nc1ccc(S(=O)(=O)Nc2ccnn2-c2ccccc2)cc1 [SULFAPHENAZOLE] | – | – | – | inhibition at 10 min, 10 µM (CYP2C9): 87.1%
3 | CCOC(=O)C1=C(CN2CCN(C(C(=O)O)c3cccc(C(F)F)c3)CC2)NC(c2nccs2)=NC1c1ccc(F)cc1Br (stereo not drawn) | < 2.2 | > 10000 | 22.4 | –
4 | CCOC(=O)C1=C(CN2CCN(C(C(=O)O)c3cccc(C(F)(F)F)c3)CC2)NC(c2nccs2)=NC1c1ccc(F)cc1Br (stereo not drawn) | 2.2 | 9980 | 22.4 | –
5 | CCOC(=O)C1=C(CN2CCN(C(C(=O)O)c3ccc(C#N)cc3)CC2)NC(c2nccs2)=NC1c1ccc(F)cc1Br (stereo not drawn) | 6.8 | 4310 | 29.2 | –
6 | CCOC(=O)C1=C(CN2CCN(C(C(=O)O)c3ccc4occc4c3)CC2)NC(c2nccs2)=NC1c1ccc(F)cc1Br (stereo not drawn) | 9.8 | 2280 | 22.4 | –
7 | COc1cc(N)c(Cl)cc1C(=O)NC1CCN(CCCOc2ccc(F)cc2)CC1OC (stereo not drawn) [CISAPRIDE] | – | – | – | inhibition at 1 µM (hERG (KCNH2)): 96.7%
8 | CCOC(=O)C1=C(CN2CCN(C(C(=O)O)c3ccc4c(c3)OCO4)CC2)NC(c2nccs2)=NC1c1ccc(F)cc1Br (stereo not drawn) | 9.1 | 2460 | 22.4 | –
9 | CC[C@@]1(c2ccccc2)NC(=O)N(Cc2ccccc2)C1=O | – | – | – | inhibition at 10 min, 10 µM (CYP2C19): 89.4%
10 | CCOC(=O)C1=C(CN2CCN(C(C(=O)O)c3ccc(C)cc3)CC2)NC(c2nccs2)=NC1c1ccc(F)cc1Br (stereo not drawn) | 2.6 | 8480 | 22.4 | –
11 | CCOC(=O)C1=C(CN2CCN(C(C(=O)O)C3=CCCC3)CC2)NC(c2nccs2)=NC1c1ccc(F)cc1Br (stereo not drawn) | > 100 | 500 | > 50 | –
12 | CCOC(=O)C1=C(CN2CCN(C(C(=O)O)c3cccc(C)c3)CC2)NC(c2nccs2)=NC1c1ccc(F)cc1Br (stereo not drawn) | 8.9 | 2520 | 22.4 | –
13 | CCOC(=O)C1=C(CN2CCN(C(C(=O)O)c3cccc(F)c3)CC2)NC(c2nccs2)=NC1c1ccc(F)cc1Br (stereo not drawn) | < 2.2 | > 10000 | 22.4 | –
14 | CCOC(=O)C1=C(CN2CCN(C(C(=O)O)c3ccc(OC)c(OC)c3)CC2)NC(c2nccs2)=NC1c1ccc(F)cc1Br (stereo not drawn) | – | > 10000 | > 50 | –
15 | CCOC(=O)C1=C(CN2CCN(C(C(=O)O)C3=CCCCC3)CC2)NC(c2nccs2)=NC1c1ccc(F)cc1Br (stereo not drawn) | 34.8 | 840 | 29.2 | –
16 | CCOC(=O)C1=C(CN2CCN(C(C(=O)O)c3ccc(OC)cc3)CC2)NC(c2nccs2)=NC1c1ccc(F)cc1Br (stereo not drawn) | < 2.9 | > 10000 | 29.2 | –
17 | CCOC(=O)C1=C(CN2CCN(C(C(=O)O)c3ccc(C=O)cc3)CC2)NC(c2nccs2)=NC1c1ccc(F)cc1Br (stereo not drawn) | > 12.9 | 3870 | > 50 | –
18 | CCOC(=O)C1=C(CN2CCN(C(C(=O)O)c3ccc(Br)cc3)CC2)NC(c2nccs2)=NC1c1ccc(F)cc1Br (stereo not drawn) | 18 | 1240 | 22.4 | –
19 | C=Cc1ccc(C(C(=O)O)N2CCN(CC3=C(C(=O)OCC)C(c4ccc(F)cc4Br)N=C(c4nccs4)N3)CC2)cc1 (stereo not drawn) | 5.9 | 3780 | 22.4 | –

Row | Structure (SMILES) | selectivity ratio [1] | EC50 (Hepatitis B virus) [nM] | CC50 [2] [µM] | also measured
20 | CCOC(=O)C1=C(CN2CCN(C(C(=O)O)c3ccc(O)cc3)CC2)NC(c2nccs2)=NC1c1ccc(F)cc1Br (stereo not drawn) | 3.5 | 6300 | 22.4 | –
21 | CCOC(=O)C1=C(CN2CCN(C(C(=O)O)c3cccc(C#N)c3)CC2)NC(c2nccs2)=NC1c1ccc(F)cc1Br (stereo not drawn) | < 2.2 | > 10000 | 22.4 | –
22 | O=c1cc(-c2ccccc2)oc2c1ccc1ccccc12 [ALPHA-NAPHTHOFLAVONE] | – | – | – | inhibition at 10 min, 10 µM (CYP1A2): 88.7%
23 | CCOC(=O)C1=C(CN2CCN(C(C(=O)O)c3ccsc3)CC2)NC(c2nccs2)=NC1c1ccc(F)cc1Br (stereo not drawn) | 962 | 70 | > 50 | –
24 | CCOC(=O)C1=C(CN2CCN(C(C(=O)O)c3ccccc3OC)CC2)NC(c2nccs2)=NC1c1ccc(F)cc1Br (stereo not drawn) | 21.3 | 2350 | 50 | –
25 | CCOC(=O)C1=C(CN2CCN(C(C(=O)O)c3ccoc3)CC2)NC(c2nccs2)=NC1c1ccc(F)cc1Br (stereo not drawn) | – | > 10000 | > 50 | –
26 | CCOC(=O)C1=C(CN2CCN(C(C(=O)O)c3ccc4c(c3)OCCO4)CC2)NC(c2nccs2)=NC1c1ccc(F)cc1Br (stereo not drawn) | 508 | 44 | 22.4 | –
27 | C#Cc1cccc(C(C(=O)O)N2CCN(CC3=C(C(=O)OCC)C(c4ccc(F)cc4Br)N=C(c4nccs4)N3)CC2)c1 (stereo not drawn) | < 2.2 | > 10000 | 22.4 | –
28 | CCOC(=O)C1=C(CN2CCN(C(C(=O)O)c3ccc(Cl)cc3)CC2)NC(c2nccs2)=NC1c1ccc(F)cc1Br (stereo not drawn) | 57.3 | 390 | 22.4 | –
29 | CCOC(=O)C1=C(CN2CCN(C(C(=O)O)c3ccccc3C)CC2)NC(c2nccs2)=NC1c1ccc(F)cc1Br (stereo not drawn) | 30.2 | 580 | 22.4 | –
30 | CCOC(=O)C1=C(CN2CCN(C(C(=O)O)c3ccccc3C#N)CC2)NC(c2nccs2)=NC1c1ccc(F)cc1Br (stereo not drawn) | 9.3 | 5360 | 50 | –
31 | CCOC(=O)C1=C(CN2CCN(C(C(=O)O)c3cccc(O)c3)CC2)NC(c2nccs2)=NC1c1ccc(F)cc1Br (stereo not drawn) | > 21 | 2380 | > 50 | –
32 | O=C(O)Cc1ccccc1Nc1c(Cl)cccc1Cl [DICLOFENAC] | – | – | – | microsomal CLint [3]: 235 µL/min/mg; CLint scaled [4]: 212 mL/min/kg
33 | CCOC(=O)C1=C(CN2CCN(C(C(=O)O)c3cccc4ccccc34)CC2)NC(c2nccs2)=NC1c1ccc(F)cc1Br (stereo not drawn) | 26.3 | 850 | 22.4 | –
34 | C[C@]12CC[C@H]3[C@@H](CCC4=CC(=O)CC[C@@]43C)[C@@H]1CC[C@@H]2O [TESTOSTERONE] | – | – | – | microsomal CLint [3]: 130 µL/min/mg; half-life [5]: 10.7 min; CLint scaled [4]: 117 mL/min/kg
35 | CCOC(=O)C1=C(CN2CCN(C(C(=O)O)c3ccc(F)cc3)CC2)NC(c2nccs2)=NC1c1ccc(F)cc1Br (stereo not drawn) | < 2.9 | > 10000 | 29.2 | –
36 | CCOC(=O)C1=C(CN2CCN(C(C(=O)O)c3ccc(CC)cc3)CC2)NC(c2nccs2)=NC1c1ccc(F)cc1Br (stereo not drawn) | 41.4 | 460 | 22.4 | –
37 | CCOC(=O)C1=C(CN2CCN(C(C(=O)O)c3ccccc3)CC2)NC(c2nccs2)=NC1c1ccc(F)cc1Br (stereo not drawn) | > 18.6 | 2690 | > 50 | –
38 | CCOC(=O)C1=C(CN2CCN(C(C(=O)O)c3cccc(C=O)c3)CC2)NC(c2nccs2)=NC1c1ccc(F)cc1Br (stereo not drawn) | 2440 | > 10000 | > 50 | –
